Paper PMC3495945, “Org 214007-0: A Novel Non-Steroidal Selective Glucocorticoid Receptor Modulator with Full Anti-Inflammatory Properties and Improved Therapeutic Index” (PLoS ONE, 2012)

Legend:
[1] = target: T1, recombinant human glucocorticoid receptor (GR) (Homo sapiens, UniProt P04150); assay: Glucocorticoid receptor fluorescence polarisation competitor binding assay; details: fluorescence polarization competitor binding; mean (±SD); read-out: Ki, competitive binding
T1 construct: purchased Panvera P2816
T1 sequence (P04150 whole entry): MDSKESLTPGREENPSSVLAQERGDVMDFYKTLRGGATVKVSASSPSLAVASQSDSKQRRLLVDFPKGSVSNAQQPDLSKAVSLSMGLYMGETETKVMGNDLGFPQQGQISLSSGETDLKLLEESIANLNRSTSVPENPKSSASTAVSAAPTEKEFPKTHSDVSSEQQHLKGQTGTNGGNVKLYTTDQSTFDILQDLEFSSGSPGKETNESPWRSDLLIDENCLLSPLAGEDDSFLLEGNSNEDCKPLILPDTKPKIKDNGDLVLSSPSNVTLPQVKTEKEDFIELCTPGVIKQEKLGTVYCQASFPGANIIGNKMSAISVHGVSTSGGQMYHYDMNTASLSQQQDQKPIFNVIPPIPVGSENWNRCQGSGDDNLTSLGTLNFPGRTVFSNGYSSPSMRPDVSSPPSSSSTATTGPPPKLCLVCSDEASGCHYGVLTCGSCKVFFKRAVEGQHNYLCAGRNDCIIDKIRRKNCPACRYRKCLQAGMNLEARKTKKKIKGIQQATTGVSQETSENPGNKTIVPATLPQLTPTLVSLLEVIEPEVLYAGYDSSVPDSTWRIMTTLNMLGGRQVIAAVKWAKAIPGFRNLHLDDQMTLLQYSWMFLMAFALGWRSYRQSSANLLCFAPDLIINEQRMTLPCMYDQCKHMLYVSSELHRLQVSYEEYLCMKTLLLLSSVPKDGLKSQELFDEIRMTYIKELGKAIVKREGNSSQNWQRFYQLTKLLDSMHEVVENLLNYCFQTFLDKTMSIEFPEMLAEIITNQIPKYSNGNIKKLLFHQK
From the text: (for more detailed information see Supportive Information) (SI text).

[2] = target: T2, human progesterone receptor B (PR-B) (Homo sapiens, UniProt P06401); assay: CHO steroid receptor reporter assay, PR-B / MMTV-Luc; assay type: cell-based
T2 construct: expressed in transfected cells; host or cells: CHO K1
T2 sequence (P06401 1-933): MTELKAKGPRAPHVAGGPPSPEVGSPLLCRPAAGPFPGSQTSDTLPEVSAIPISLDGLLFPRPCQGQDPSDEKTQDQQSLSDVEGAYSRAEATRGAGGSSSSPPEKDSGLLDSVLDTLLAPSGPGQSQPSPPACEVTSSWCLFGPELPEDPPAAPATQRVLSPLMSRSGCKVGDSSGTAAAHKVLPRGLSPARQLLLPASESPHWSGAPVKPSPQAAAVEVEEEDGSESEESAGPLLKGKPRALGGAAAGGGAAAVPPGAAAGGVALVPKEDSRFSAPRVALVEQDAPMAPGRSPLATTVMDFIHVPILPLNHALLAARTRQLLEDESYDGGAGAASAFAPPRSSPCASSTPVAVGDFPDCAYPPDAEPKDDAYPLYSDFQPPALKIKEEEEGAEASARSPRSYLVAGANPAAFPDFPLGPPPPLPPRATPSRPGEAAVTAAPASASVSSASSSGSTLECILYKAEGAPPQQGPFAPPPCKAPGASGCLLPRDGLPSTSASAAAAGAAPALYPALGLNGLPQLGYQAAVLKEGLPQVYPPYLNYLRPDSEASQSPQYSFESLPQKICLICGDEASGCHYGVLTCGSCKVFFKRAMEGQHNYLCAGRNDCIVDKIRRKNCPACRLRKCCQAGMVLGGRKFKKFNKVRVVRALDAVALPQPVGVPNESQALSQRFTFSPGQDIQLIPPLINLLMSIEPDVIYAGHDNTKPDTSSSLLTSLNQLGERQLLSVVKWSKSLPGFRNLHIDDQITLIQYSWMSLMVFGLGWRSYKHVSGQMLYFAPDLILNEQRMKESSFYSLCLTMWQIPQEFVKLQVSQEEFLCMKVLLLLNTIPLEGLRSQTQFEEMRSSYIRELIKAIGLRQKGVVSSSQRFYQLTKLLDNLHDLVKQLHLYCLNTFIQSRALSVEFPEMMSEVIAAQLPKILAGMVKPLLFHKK
From the text: (§1) For monitoring both human steroid receptor agonistic as well as antagonistic activity of compounds, Chinese hamster ovary (CHO) K1 cells stably co-transfected with the specific human steroid receptor and its respective reporter construct were used (as previously described).
(§2) For human glucocorticoid receptor (GR)-specific activity CHO-GR B4.8 cells containing both recombinant human GR as well as a reporter construct consisting of the mouse mammary tumor virus (MMTV) promotor and the luciferase reporter gene, were used. Compound was incubated alone (in the agonistic setup) or with 50 nM dexamethasone (in the antagonistic setup) overnight. Hereafter, 200 µl medium was removed and 50 µl luciferine substrate solution from the LucLite luminescence kit (Packard, Meriden, USA) was added. […] Percentage maximal antagonistic efficacy was related to the maximal antagonistic efficacy of reference GR antagonist Org 34116. Similar procedures were followed for the other human steroid receptor assays (for more detailed information see Supportive Information) (SI text).
(§3) Similar procedures were followed for the other human steroid receptor assays containing combinations of human progesterone receptor B (PR-B) and MMTV-Luc, human androgen receptor (AR) and MMTV-Luc, human chimeric glucocorticoid-mineralocorticoid receptor (GGM, Trapp et al. (1994), Neuron 13: 1457) and MMTV-Luc, human estrogen receptor alpha (ERα) and rat oxytocin-Luc (45), and human estrogen receptor beta (ERβ) and rat oxytocin-Luc, respectively.

[3] = target: T3, human chimeric glucocorticoid-mineralocorticoid receptor (GGM) (Homo sapiens, UniProt P04150+P08235, G607S/G671E/L660Y/Q661R/V618L); assay: CHO steroid receptor reporter assay, MR (GGM) / MMTV-Luc; assay type: cell-based
T3 construct: glucocorticoid receptor part of the chimera (human NR3C1, P04150); expressed in transfected cells; host or cells: CHO K1
T3 sequence (P04150+P08235 with tags, fused parts or gaps P08235:G607S/P08235:V618L/P08235:L660Y/P08235:Q661R/P08235:G671E): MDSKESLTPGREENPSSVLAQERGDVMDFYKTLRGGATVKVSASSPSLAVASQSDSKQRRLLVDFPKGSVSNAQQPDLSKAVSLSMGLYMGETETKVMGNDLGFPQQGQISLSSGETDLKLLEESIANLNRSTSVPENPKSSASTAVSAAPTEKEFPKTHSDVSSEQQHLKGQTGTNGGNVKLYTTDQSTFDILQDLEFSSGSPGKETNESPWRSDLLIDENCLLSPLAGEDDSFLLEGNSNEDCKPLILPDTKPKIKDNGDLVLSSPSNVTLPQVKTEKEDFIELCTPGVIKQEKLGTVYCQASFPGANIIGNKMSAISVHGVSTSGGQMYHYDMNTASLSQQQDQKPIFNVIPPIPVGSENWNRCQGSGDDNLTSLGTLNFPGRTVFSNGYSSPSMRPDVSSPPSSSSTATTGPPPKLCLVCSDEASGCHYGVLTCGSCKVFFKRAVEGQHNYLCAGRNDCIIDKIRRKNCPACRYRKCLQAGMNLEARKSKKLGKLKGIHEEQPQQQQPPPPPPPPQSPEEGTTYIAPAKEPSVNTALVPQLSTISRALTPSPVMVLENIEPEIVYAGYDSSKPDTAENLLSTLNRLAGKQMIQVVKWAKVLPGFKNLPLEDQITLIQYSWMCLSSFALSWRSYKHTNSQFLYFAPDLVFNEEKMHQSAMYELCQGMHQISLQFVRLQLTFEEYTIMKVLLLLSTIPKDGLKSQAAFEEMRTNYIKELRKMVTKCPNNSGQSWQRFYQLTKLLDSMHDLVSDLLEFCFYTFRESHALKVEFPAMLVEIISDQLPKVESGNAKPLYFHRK
From the text: as §1, §2, §3

[4] = target: T4, human estrogen receptor beta (ERβ) (Homo sapiens, UniProt Q92731); assay: CHO steroid receptor reporter assay, ERβ / rat oxytocin-Luc; assay type: cell-based; details: ERß
T4 construct: expressed in transfected cells; host or cells: CHO K1
T4 sequence (Q92731 whole entry): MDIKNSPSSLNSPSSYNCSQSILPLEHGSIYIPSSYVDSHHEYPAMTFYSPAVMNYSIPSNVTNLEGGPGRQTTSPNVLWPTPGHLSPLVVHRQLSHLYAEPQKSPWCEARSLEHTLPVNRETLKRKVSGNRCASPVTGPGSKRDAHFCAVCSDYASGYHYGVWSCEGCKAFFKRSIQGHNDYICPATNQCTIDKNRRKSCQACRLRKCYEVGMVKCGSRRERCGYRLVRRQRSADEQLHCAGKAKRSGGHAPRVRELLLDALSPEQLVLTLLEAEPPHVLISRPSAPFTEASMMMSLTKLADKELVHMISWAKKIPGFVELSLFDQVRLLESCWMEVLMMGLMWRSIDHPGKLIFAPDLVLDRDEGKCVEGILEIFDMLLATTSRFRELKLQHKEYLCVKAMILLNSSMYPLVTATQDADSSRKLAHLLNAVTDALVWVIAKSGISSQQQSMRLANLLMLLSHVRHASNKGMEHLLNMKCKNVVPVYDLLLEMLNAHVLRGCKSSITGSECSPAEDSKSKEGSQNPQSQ
From the text: as §1, §2, §3

[5] = read-out: % efficacy (antagonist)

Ki [1]: 2.2 nM
IC50 ([2]; mean (±SD), read-out: IC50 (antagonist)): 19.4 nM
Emax [2, 5]: > 87%
EC50 ([2]; read-out: EC50 (agonist)): > 100 nM
% agonist potency ([2]; relative to reference compound): <0.03%
% antagonist potency ([2]; relative to reference compound, mean (±SD)): 0.46 (±0.2) %
Emax [3, 5]: > 40%
EC50 ([3]; read-out: EC50 (agonist)): > 1000 nM
IC50 ([3]; read-out: IC50 (antagonist)): > 1260 nM
% agonist potency ([3]; relative to reference compound): <0.1%
% antagonist potency ([3]; relative to reference compound): <1.27%
EC50 ([4]; read-out: EC50 (agonist)): > 100 nM
IC50 ([4]; read-out: IC50 (antagonist)): > 1000 nM
% agonist potency ([4]; relative to reference compound): <0.01%
% antagonist potency ([4]; relative to reference compound): <0.9%
Structure (SMILES): Cc1nnsc1C(=O)N[C@H]1CCN2c3ccc(C#N)cc3[C@@H](C)c3ccccc3[C@@H]2C1 [Org 214007-0]
